Test results: patent EP0373216A1, “CEPHALOSPORIN COMPOUNDS OR THEIR SALTS, PROCESS FOR THEIR PREPARATION, AND PARMACEUTICAL COMPOSITIONS” (TEIJIN LIMITED, priority 1987, dated 1988)
≈ marks a conversion by molar mass, not a printed value. Like-named read-outs stand apart in the source and are kept apart here.

Key:
Assay in all cases: In vitro antibacterial activity, agar disc dilution method
Assay type in all cases: cell-based
[1] = tested on: S. marcescens I AM 1184; conditions: Serratia marcescens, read-out: minimum growth inhibitory concentration (MIC)
Experimental: (§1) An in vitro antibacterial activity was measured by an agar disc dilution method.
(§2) Varied test bacteria were cultivated overnight in triptophane-soybroth. A Mueller Hinton agar containing the compound of this invention in varied concentrations was streaked with one platinum loopful of each of the bacteria (number of living cells 10^6/ml).

[2] = tested on: K. pneumoniae PC I 602; conditions: Klebsiella pneumoniae, read-out: minimum growth inhibitory concentration (MIC)
Experimental: as §1, §2

[3] = tested on: S. enteritidis G14; conditions: Salmonella enterica, read-out: minimum growth inhibitory concentration (MIC)
Experimental: as §1, §2

[4] = tested on: P. morganii IFO 3445; conditions: Morganella morganii, read-out: minimum growth inhibitory concentration (MIC)
Experimental: as §1, §2

[5] = tested on: B. subtilis ATCC 6633; conditions: Bacillus subtilis, read-out: minimum growth inhibitory concentration (MIC)
Experimental: as §1, §2

[6] = tested on: E. cloacae 963; conditions: read-out: minimum growth inhibitory concentration (MIC)
Experimental: as §1, §2

[7] = tested on: P. aeruginosa NCTC 1049; conditions: Pseudomonas aeruginosa, read-out: minimum growth inhibitory concentration (MIC)
Experimental: as §1, §2

[8] = tested on: E. coli K12C600; conditions: Escherichia coli, read-out: minimum growth inhibitory concentration (MIC)
Experimental: as §1, §2

[9] = tested on: S. aureus Terajima; conditions: Staphylococcus aureus, read-out: minimum growth inhibitory concentration (MIC)
Experimental: as §1, §2

[10] = tested on: S. pyogenes Cook; conditions: Streptococcus pyogenes, read-out: minimum growth inhibitory concentration (MIC)
Experimental: as §1, §2

[11] = tested on: P. rettgeric IFO3850; conditions: read-out: minimum growth inhibitory concentration (MIC)
Experimental: as §1, §2

[12] = tested on: P. vulgalis OX-19; conditions: read-out: minimum growth inhibitory concentration (MIC)
Experimental: as §1, §2

[13] = tested on: M. euteus ATCC 9341; conditions: read-out: minimum growth inhibitory concentration (MIC)
Experimental: as §1, §2

[14] = tested on: S. typhic 901; conditions: Mueller Hinton agar, 10^6/ml, 37°C for 16 hours, read-out: minimum growth inhibitory concentration (MIC)
Experimental: as §1, §2

[15] = IAM1184, S. marcescens I AM 1184, Mueller Hinton agar, 10^6/ml, 37°C for 16 hours
[16] = PCI602, K. pneumoniae PC I 602, Mueller Hinton agar, 10^6/ml, 37°C for 16 hours
[17] = S. enteritidis G14, Mueller Hinton agar, 10^6/ml, 37°C for 16 hours
[18] = IFO3445, P. morganii IFO 3445, Mueller Hinton agar, 10^6/ml, 37°C for 16 hours
[19] = ATCC6633, B. subtilis ATCC 6633, Mueller Hinton agar, 10^6/ml, 37°C for 16 hours
[20] = Enterobacter cloacae, E. cloacae 963, Mueller Hinton agar, 10^6/ml, 37°C for 16 hours
[21] = NCTC1049, P. aeruginosa NCTC 1049, Mueller Hinton agar, 10^6/ml, 37°C for 16 hours
[22] = E. coli K12C600, Mueller Hinton agar, 10^6/ml, 37°C for 16 hours
[23] = S. aureus Terajima, Mueller Hinton agar, 10^6/ml, 37°C for 16 hours
[24] = S. pyogenes Cook, Mueller Hinton agar, 10^6/ml, 37°C for 16 hours
[25] = P. rettgeric IFO3850, Mueller Hinton agar, 10^6/ml, 37°C for 16 hours
[26] = P. vulgalis OX-19, Mueller Hinton agar, 10^6/ml, 37°C for 16 hours
[27] = M. euteus ATCC 9341, Mueller Hinton agar, 10^6/ml, 37°C for 16 hours

Compound	MIC [1, 15] [µg/mL]	MIC [2, 16] [µg/mL]	MIC [3, 17] [µg/mL]	MIC [4, 18] [µg/mL]	MIC [5, 19] [µg/mL]	MIC [6, 20] [µg/mL]	MIC [7, 21] [µg/mL]	MIC [8, 22] [µg/mL]	MIC [9, 23] [µg/mL]	MIC [10, 24] [µg/mL]	MIC [11, 25] [µg/mL]	MIC [12, 26] [µg/mL]	MIC [13, 27] [µg/mL]	MIC [14] [µg/mL]	further results
Nc1nc(/C(=N/Oc2ccc(-c3ccccc3)cc2)C(=O)N[C@@H]2C(=O)N3C(C(=O)[O-])=C(C[n+]4ccc5cc(O)c(O)cc5c4)CS[C@H]23)cs1 [Compound IV, (6R,7R)-7-[(Z)-2-(2-amino-1,3-thiazol-4-yl)-2-(p-phenylphenoxy)iminoacetamide]-3-(6,7-dihydroxy-2-isoquinolinium)methyl-3-cephem-4-carboxylate]	< 0.01	0.02 (≈ 0.0288 µM)	0.02 (≈ 0.0288 µM)	< 0.01	1.6 (≈ 2.3 µM)	< 0.01	0.8 (≈ 1.15 µM)	0.02 (≈ 0.0288 µM)	1.6 (≈ 2.3 µM)	0.4 (≈ 0.576 µM)	< 0.01	< 0.01	0.8 (≈ 1.15 µM)	< 0.01	
Nc1nc(/C(=N/Oc2ccccc2)C(=O)N[C@@H]2C(=O)N3C(C(=O)[O-])=C(C[n+]4ccc5cc(O)c(O)cc5c4)CS[C@H]23)cs1 [Compound I, (6R,7R)-7-[(Z)-2-(2-amino-1,3-thiazol-4-yl)-2-phenoxy-iminoacetamide]-3-(6,7-dihydroxy-2-isoquinolinium)methyl-3-cephem-4-carboxylate]	< 0.01	< 0.01	< 0.01	< 0.01	0.1 (≈ 0.162 µM)	< 0.01	0.1 (≈ 0.162 µM)	< 0.01	0.8 (≈ 1.29 µM)	0.2 (≈ 0.323 µM)	< 0.01	< 0.01	0.1 (≈ 0.162 µM)	< 0.01	
CC(=O)Oc1cc2cc[n+](CC3=C(C(=O)[O-])N4C(=O)[C@@H](NC(=O)/C(=N\Oc5ccccc5)c5csc(N)n5)[C@H]4SC3)cc2cc1OC(C)=O [Compound IX, (6R,7R)-7-[(Z)-2-(2-amino-1,3-thiazol-4-yl)-2-phenoxyiminoacetamide]-3-(6,7-diacetoxy-2-isoquinolinium)methyl-3-cephem-4-carboxylate]	< 0.01	< 0.01	0.02 (≈ 0.0285 µM)	< 0.01	0.8 (≈ 1.14 µM)	0.02 (≈ 0.0285 µM)	0.1 (≈ 0.142 µM)	0.01 (≈ 0.0142 µM)	1.6 (≈ 2.28 µM)	0.4 (≈ 0.569 µM)	< 0.01	< 0.01	1.6 (≈ 2.28 µM)	< 0.01	
Nc1nc(/C(=N/Oc2ccccc2)C(=O)N[C@@H]2C(=O)N3C(C(=O)[O-])=C(C[n+]4cc(C(=O)O)c5cc(O)c(O)cc5c4)CS[C@H]23)cs1 [Compound VI, (6R,7R)-7-[(Z)-2-(2-amino-1,3-thiazol-4-yl)-2-phenoxyiminoacetamide]-3-(4-carboxy-6,7-dihydroxy-2-isoquinolinium)methyl-3-cephem-4-carboxylate]	< 0.01	0.02 (≈ 0.0302 µM)	< 0.01	0.02 (≈ 0.0302 µM)	1.6 (≈ 2.41 µM)	0.05 (≈ 0.0755 µM)	3.1 (≈ 4.68 µM)	0.02 (≈ 0.0302 µM)	3.1 (≈ 4.68 µM)	0.8 (≈ 1.21 µM)	0.02 (≈ 0.0302 µM)	< 0.01	0.8 (≈ 1.21 µM)	< 0.01	
CC(C)(O/N=C(\C(=O)N[C@@H]1C(=O)N2C(C(=O)[O-])=C(C[n+]3ccc4cc(O)c(O)cc4c3)CS[C@H]12)c1csc(N)n1)C(=O)O [Compound A, (6R,7R)-7-[(Z)-2-(2-amino-l,3-thiazol-4-yl)-2-(2-carboxypropyl-2-yloxyimino)acetamide]-3-(6,7-dihydroxy-2-isoquinolinium)methyl-3-cephem-4-carboxylate, reference compound]	< 0.01	< 0.01	< 0.01	< 0.01	0.4 (≈ 0.636 µM)	< 0.01	0.02 (≈ 0.0318 µM)	< 0.01	6.2 (≈ 9.86 µM)	1.6 (≈ 2.55 µM)	< 0.01	< 0.01	0.2 (≈ 0.318 µM)	< 0.01	
CC(C)(O/N=C(\C(=O)N[C@@H]1C(=O)N2C(C(=O)[O-])=C(C[n+]3ccccc3)CS[C@H]12)c1csc(N)n1)C(=O)O [CAZ, Ceftazidime, reference compound]														0.1 (≈ 0.183 µM)	MIC ([1]; IAM1184, 16 h): 0.03 µg/mL (≈ 0.0549 µM); MIC ([2]; PCI602, 16 h): 0.1 µg/mL (≈ 0.183 µM); MIC ([3]; ENTERITIDIS, 16 h): 0.1 µg/mL (≈ 0.183 µM); MIC ([4]; IFO3445, 16 h): 0.01 µg/mL (≈ 0.0183 µM); MIC ([5]; ATCC6633, 16 h): 3.1 µg/mL (≈ 5.67 µM); MIC ([6]; Enterobacter cloacae, 963, 16 h): 0.1 µg/mL (≈ 0.183 µM); MIC ([7]; NCTC1049, 16 h): 0.8 µg/mL (≈ 1.46 µM); MIC ([8]; K12C600, 16 h): 0.2 µg/mL (≈ 0.366 µM); MIC ([9]; 16 h): 3.1 µg/mL (≈ 5.67 µM); MIC ([10]; 16 h): 1.6 µg/mL (≈ 2.93 µM); MIC ([11]; 16 h): 0.01 µg/mL (≈ 0.0183 µM); MIC ([12]; 16 h): 0.01 µg/mL (≈ 0.0183 µM); MIC ([13]; 16 h): 1.6 µg/mL (≈ 2.93 µM)
Nc1nc(/C(=N/Oc2cccc(C(=O)O)c2)C(=O)N[C@@H]2C(=O)N3C(C(=O)[O-])=C(C[n+]4ccc5cc(O)c(O)cc5c4)CS[C@H]23)cs1 [Compound VIII]	0.1 (≈ 0.151 µM)	0.03 (≈ 0.0453 µM)	0.03 (≈ 0.0453 µM)	0.03 (≈ 0.0453 µM)	0.3 (≈ 0.453 µM)	0.1 (≈ 0.151 µM)	0.2 (≈ 0.302 µM)	0.05 (≈ 0.0755 µM)	3.1 (≈ 4.68 µM)	0.8 (≈ 1.21 µM)	0.02 (≈ 0.0302 µM)	0.02 (≈ 0.0302 µM)	1.6 (≈ 2.41 µM)	0.03 (≈ 0.0453 µM)	
CC(=O)Oc1cc2cc[n+](CC3=C(C(=O)[O-])N4C(=O)[C@@H](NC(=O)/C(=N\Oc5ccccc5)c5csc(N)n5)[C@H]4SC3)cc2cc1O [Compound X]	< 0.01	< 0.01	0.01 (≈ 0.0151 µM)	< 0.01	0.8 (≈ 1.21 µM)	< 0.01	0.1 (≈ 0.151 µM)	< 0.01	1.6 (≈ 2.42 µM)	0.8 (≈ 1.21 µM)	< 0.01	< 0.01	1.6 (≈ 2.42 µM)	< 0.01	
Nc1nc(/C(=N/Oc2ccc(Cl)cc2)C(=O)N[C@@H]2C(=O)N3C(C(=O)[O-])=C(C[n+]4ccc5cc(O)c(O)cc5c4)CS[C@H]23)cs1 [Compound III]	< 0.01	< 0.01	< 0.01	0.01 (≈ 0.0153 µM)	0.4 (≈ 0.612 µM)	0.03 (≈ 0.0459 µM)	0.8 (≈ 1.22 µM)	< 0.01	0.8 (≈ 1.22 µM)	0.1 (≈ 0.153 µM)	< 0.01	< 0.01	0.2 (≈ 0.306 µM)	< 0.01	
Nc1nc(/C(=N/Oc2ccccc2)C(=O)N[C@@H]2C(=O)N3C(C(=O)[O-])=C(C[n+]4ccc5cc(O)c(O)cc5c4)CS[C@H]23)ns1 [Compound XI, (6R,7R)-[(Z)-2(5-amino-1,2,4-thiadiazol-3-yl)-2-phenoxyiminoacetamide]-3-(6,7-dihydroxy-2-isoquinolinium)methyl-3-cephem-carboxylate]	< 0.01	< 0.01	< 0.01	< 0.01	0.4 (≈ 0.646 µM)	< 0.01	0.2 (≈ 0.323 µM)	0.01 (≈ 0.0161 µM)	0.2 (≈ 0.323 µM)	0.05 (≈ 0.0807 µM)	< 0.01	< 0.01	0.01 (≈ 0.0161 µM)	< 0.01	
Nc1nc(/C(=N/Oc2ccccc2)C(=O)N[C@@H]2C(=O)N3C(C(=O)[O-])=C(C[n+]4cc(C(=O)O)c5cc(O)c(O)cc5c4Cl)CS[C@H]23)cs1 [Compound VII, (6R,7R)-7-[(Z)-2-(2-amino-1,3-thiazol-4-yl)-2-phenoxyiminoacetamide]-3-(l-chloro-4-carboxy-6,7-dihydroxy-2-isoquinolinium)methyl-3-cephem-4-carboxylate]	0.03 (≈ 0.043 µM)	0.03 (≈ 0.043 µM)	0.02 (≈ 0.0287 µM)	0.03 (≈ 0.043 µM)	1.6 (≈ 2.3 µM)	0.1 (≈ 0.143 µM)	1.6 (≈ 2.3 µM)	0.03 (≈ 0.043 µM)	3.1 (≈ 4.45 µM)	0.4 (≈ 0.574 µM)	0.03 (≈ 0.043 µM)	0.02 (≈ 0.0287 µM)	0.8 (≈ 1.15 µM)		
